These results are taken from paper PMC9739180, “Discovery of a Flavonoid FM04 as a Potent Inhibitor to Reverse P-Glycoprotein-Mediated Drug Resistance in Xenografts and Improve Oral Bioavailability of Paclitaxel” (International Journal of Molecular Sciences, 2022).

This data set can be described thus: In vivo monitoring of FD18 and its metabolites in plasma after I.V. FD18. Conditions: after FD18 5 mg/kg I.V. Further details: species or system SD rats. How it is done:
Figure 3 Proposed metabolism pathway of FD18 and its metabolites formed in vivo. (A) metabolism study of FD18 was conducted on human liver microsomes (HLM) and rat liver microsomes (RLM) in vitro. Chemical structure of the 3 metabolites was predicted by LC/QTOF-MS/MS and confirmed by the synthetic compounds (Figure 2E–J). The pathways for biotransformation of FD18 into FM04 was proposed. (B) plasma concentration profile of FD18 and the in vivo formation of metabolites M1, M2 and M3. After I.V. injection of FD18 (5 mg/kg) into […], plasma was collected at 10, 30, 60, 120, 240, 420 and 600 min, respectively. The concentration of FD18 at each time point was determined by UPLC-MS/MS. Its plasma concentration was further quantified with peak area ratio of FD18 against D7-18. […] In vivo formation of metabolites M1, M2 and M3 were monitored and quantified by UPLC-MS/MS with corresponding calibration curve of 14a, FM04 and FM327. Pharmacokinetic parameter AUC was calculated by the pharmacokinetic software-Summit® PK solutions 2.0 (Summit Research Service, Ashland, Wilmington, DE, USA).
FD18 stock solution was freshly prepared in 33% Cremophor EL, 33% ethanol and 33% saline at a concentration of 9.5 mg/mL. FD18 stock solution was then diluted with saline to form a 4 mg/mL working solution for animal injection. SD rats were intravenously (I.V.) administered with FD18 at 5 mg/kg (n = 3). Blood samples (approx. 300 μL) were taken via jugular vein at 10, 30, 60, 120, 240 and 420 min post-administration. Blood samples were centrifuged at 16,100× g for 10 min to obtain plasma. Plasma samples (50 µL) were spiked with 15 μL of internal standard (IS) (D7-NBn, 10 μg/mL). Two hundred microliter of methanol was added for protein precipitation. Samples were centrifuged at 16,100× g for 10 min prior to filtering by 0.22 μm syringe filter for UPLC-MSMS analysis.
The UPLC-MS/MS system consists of an Agilent 1260 infinity UPLC interfaced with a triple quadrupole mass spectrometer (Agilent 6460) equipped with an electrospray ionization source in positive mode. Zorbax Eclipse XDB-C8 (4.6 × 150 mm, 5 µM) was used for separation. The mobile phase for chromatographic separation consisted of methanol + 0.1% formic acid (solvent B) and Milli-Q water + 0.1% formic acid (solvent A) with gradient elution of 30% solvent B to 100% solvent B in 5 min. The elution condition was allowed for equilibrium from the 7th min onward. The analysis time for each injection was 13 min. The flow rate was 0.4 mL/min. The synthetic compound D7-NBn, the deuterated benzyl form of FD18, was used as the internal standard (IS) for the quantification of the three metabolites. Multiple reaction monitoring (MRM) was set to monitor the transitions of D7-NBn [M+H]^+, FD18 [M+H]^+, M1 [M+H]^+, M2 [M+H]^+ and M3 [M+H]^+ at 731.01 > 98.1 m/z, 724.01 > 91.1 m/z, 634.01 > 114 m/z, 416.01 > 91.1 m/z and 327.01 > 239 m/z, respectively. The coefficient of determination (R^2) for 14a, FM04 and FM327 were above 0.99. The dynamic range for the metabolites in the current setting is 78 ng/mL to 2.44 ng/mL.

As to `O=c1cc(-c2ccc(OCCOCCNCc3ccccc3)cc2)oc2ccccc12` [FM04, 2-(4-(2-(2-(benzylamino)ethoxy)ethoxy)phenyl)-4H-chromen-4-one], for the setting “Sprague-Dawley, rat, iv”, the exposure AUC(0-t) is 44.5 ng·h/mL, the Cmax was 11 ng/mL and the Tmax was 1 h. Moreover, for the setting “listed as M2”, the “Normalized AUC (systemic exposure relative to FD18)” value is 7%.

The AUC(0-t) is the area under the concentration-time curve up to a stated or last time point. What is called Cmax is the highest concentration seen after dosing. As a reminder, the Tmax is the time at which the peak concentration occurs.
